Measurements reported in ChEMBL document CHEMBL1201862, “PubChem BioAssay data set” (2004).
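Tested at 5 concentrations; 48 h exposure; 96-well plates; endpoints linearly interpolated, else capped at highest concentration. The concentration for 50% growth inhibition is given as GI50.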 The source made the active and inactive calls. Rule as the data show it: active = GI50 up to about 1.1 µM and inactive = higher.

Legend:
Assay in all cases: NCI-60 cell line screen, 48 h
HCC 2998 = test system: HCC 2998
IGROV-1 = test system: IGROV-1
K562 = test system: K562
LOX IMVI = test system: LOX IMVI
OVCAR-3 = test system: OVCAR-3
OVCAR-4 = test system: OVCAR-4
OVCAR-8 = test system: OVCAR-8
RPMI-8226 = test system: RPMI-8226
RXF 393 = test system: RXF 393
SK-MEL-28 = test system: SK-MEL-28
SN12C = test system: SN12C
SNB-19 = test system: SNB-19
U-251 = test system: U-251
UACC-62 = test system: UACC-62
UO-31 = test system: UO-31
DU-145 = test system: DU-145
PC-3 = test system: PC-3
SF-295 = test system: SF-295
Malme-3M = test system: Malme-3M

Measured: GI50

COC(=O)N/N=C/C(=C/Nc1ccccc1)[N+](=O)[O-]
inactive: HCC 2998 > 100 µM | IGROV-1 > 100 µM | K562 > 100 µM | LOX IMVI > 100 µM | OVCAR-3 > 100 µM | OVCAR-4 > 100 µM | OVCAR-8 > 100 µM | RPMI-8226 > 100 µM | RXF 393 > 100 µM | SK-MEL-28 > 100 µM | SN12C > 100 µM | SNB-19 > 100 µM | U-251 > 100 µM | UACC-62 46.2 µM | UO-31 > 100 µM

CC1(C)CC(=O)C(=CNc2nc(-c3ccccc3)cs2)C(=O)C1
inactive: DU-145 57 µM | HCC 2998 31.2 µM | IGROV-1 26.6 µM | LOX IMVI > 100 µM | OVCAR-3 40.7 µM | OVCAR-4 69.5 µM | OVCAR-8 48.6 µM | PC-3 38.6 µM | SF-295 57.9 µM | SK-MEL-28 26.7 µM | SN12C 39.2 µM | SNB-19 71.4 µM | U-251 29.3 µM | UO-31 20.7 µM

Nc1nc(CCc2n[nH]c(N)n2)n[nH]1
inactive: HCC 2998 > 100 µM | IGROV-1 > 100 µM | K562 > 100 µM | LOX IMVI > 100 µM | Malme-3M > 100 µM | OVCAR-3 > 100 µM | OVCAR-4 > 100 µM | OVCAR-8 > 100 µM | RPMI-8226 > 100 µM | RXF 393 > 100 µM | SF-295 > 100 µM | SK-MEL-28 > 100 µM | SN12C > 100 µM | SNB-19 > 100 µM | U-251 > 100 µM | UACC-62 > 100 µM | UO-31 > 100 µM

Cc1ccc(S(=O)(=O)CNC(=S)CCCC(=S)NCS(=O)(=O)c2ccc(C)cc2)cc1
inactive: HCC 2998 > 100 µM | IGROV-1 > 100 µM | K562 53.6 µM | LOX IMVI 18.6 µM | Malme-3M 50.7 µM | OVCAR-3 48.9 µM | OVCAR-4 > 100 µM | OVCAR-8 > 100 µM | RPMI-8226 21.4 µM | RXF 393 79.4 µM | SF-295 > 100 µM | SN12C > 100 µM | SNB-19 > 100 µM | U-251 59 µM | UACC-62 44.3 µM | UO-31 35.2 µM

C/C(=N\NC(N)=S)C(CN(CC(C)C)CC(C)C)C(=O)Nc1ccc(C)cc1C (centres undefined)
inactive: HCC 2998 > 100 µM | IGROV-1 > 100 µM | K562 > 100 µM | LOX IMVI > 100 µM | Malme-3M > 100 µM | OVCAR-3 > 100 µM | OVCAR-4 > 100 µM | OVCAR-8 > 100 µM | RXF 393 > 100 µM | SF-295 > 100 µM | SK-MEL-28 > 100 µM | SN12C > 100 µM | SNB-19 > 100 µM | U-251 > 100 µM | UACC-62 > 100 µM | UO-31 > 100 µM

CC(=O)NC1C(OCc2ccccc2)OC(COC(=O)CCCCCCCCCCNc2ccc([N+](=O)[O-])c3[nH]c4ccccc4c(=O)c23)C(O)C1OC(C)C(=O)NC(C)C(=O)NC(CCC(N)=O)C(=O)OCc1ccccc1 (centres undefined)
inactive: HCC 2998 > 100 µM | IGROV-1 > 100 µM | K562 > 100 µM | LOX IMVI > 100 µM | OVCAR-3 > 100 µM | OVCAR-4 > 100 µM | OVCAR-8 > 100 µM | RPMI-8226 > 100 µM | SF-295 > 100 µM | SK-MEL-28 > 100 µM | SN12C > 100 µM | SNB-19 > 100 µM | U-251 > 100 µM | UACC-62 > 100 µM | UO-31 > 100 µM

O=C1CCCC[C@H]1[C@H]1CCC[C@@H]([C@H]2CCCCC2=O)C1=O
inactive: HCC 2998 > 100 µM | IGROV-1 > 100 µM | K562 > 100 µM | LOX IMVI > 100 µM | Malme-3M > 100 µM | OVCAR-3 > 100 µM | OVCAR-4 > 100 µM | RPMI-8226 > 100 µM | RXF 393 > 100 µM | SF-295 > 100 µM | SK-MEL-28 > 100 µM | SN12C > 100 µM | SNB-19 > 100 µM | U-251 > 100 µM | UACC-62 > 100 µM | UO-31 > 100 µM

Sc1ccccc1S
inactive: HCC 2998 > 100 µM | IGROV-1 > 100 µM | K562 > 100 µM | LOX IMVI > 100 µM | Malme-3M > 100 µM | OVCAR-3 > 100 µM | OVCAR-4 > 100 µM | OVCAR-8 > 10 µM | RXF 393 > 100 µM | SF-295 > 100 µM | SK-MEL-28 > 100 µM | SN12C > 100 µM | SNB-19 > 100 µM | U-251 > 100 µM | UACC-62 > 100 µM | UO-31 > 10 µM

O=S(=O)(c1ccccc1)N1CCC1c1ccccc1 (centres undefined)
inactive: HCC 2998 > 100 µM | IGROV-1 > 100 µM | K562 54.3 µM | LOX IMVI > 100 µM | Malme-3M > 100 µM | OVCAR-3 > 100 µM | OVCAR-4 89.5 µM | OVCAR-8 > 100 µM | RPMI-8226 43.2 µM | RXF 393 > 100 µM | SF-295 > 100 µM | SK-MEL-28 > 100 µM | SN12C > 100 µM | SNB-19 > 100 µM | U-251 > 100 µM | UACC-62 77.8 µM | UO-31 29.6 µM

N#C[C-](C#N)[n+]1ccc(Cl)cc1
inactive: IGROV-1 19.1 µM | K562 3.03 µM | LOX IMVI 11.2 µM | Malme-3M 15.8 µM | OVCAR-3 17.7 µM | OVCAR-4 24.9 µM | OVCAR-8 17.1 µM | RPMI-8226 4.79 µM | RXF 393 16.7 µM | SF-295 19 µM | SN12C 14.4 µM | SNB-19 32.1 µM | U-251 16.2 µM | UACC-62 15.9 µM | UO-31 22.8 µM

S=c1nc(N2CCCCC2)ss1
inactive: HCC 2998 16.2 µM | IGROV-1 25.1 µM | K562 18.4 µM | Malme-3M 19.3 µM | OVCAR-4 38.2 µM | OVCAR-8 28.5 µM | RPMI-8226 2.75 µM | RXF 393 16.7 µM | SF-295 29 µM | SK-MEL-28 18.4 µM | SN12C 17 µM | SNB-19 27.6 µM | U-251 18.2 µM | UACC-62 17.5 µM | UO-31 17.7 µM

CCCCCCCC(=O)OCC1OC(n2cc(F)c(=O)[nH]c2=O)C(N)C(O)C1O (centres undefined)
inactive: HCC 2998 > 100 µM | IGROV-1 > 100 µM | K562 > 100 µM | Malme-3M > 100 µM | OVCAR-3 > 100 µM | OVCAR-4 > 100 µM | OVCAR-8 > 100 µM | RPMI-8226 > 100 µM | RXF 393 > 100 µM | SF-295 > 100 µM | SK-MEL-28 > 100 µM | SN12C > 100 µM | SNB-19 > 100 µM | U-251 > 100 µM | UACC-62 > 100 µM | UO-31 > 100 µM

COS(=O)CCOC(=O)c1ccccc1SSc1ccccc1C(=O)OCCS(=O)OC (centres undefined)
inactive: IGROV-1 > 100 µM | K562 20.6 µM | LOX IMVI 22.2 µM | Malme-3M 18.6 µM | OVCAR-3 22.1 µM | OVCAR-4 16.4 µM | OVCAR-8 22.3 µM | RPMI-8226 18.9 µM | RXF 393 14.2 µM | SF-295 33.2 µM | SK-MEL-28 30.7 µM | SN12C 26.1 µM | SNB-19 > 100 µM | U-251 69.7 µM | UACC-62 20.5 µM | UO-31 15.5 µM

CC1=C(C(=O)CC(=O)C(=O)Nc2cccc(Cl)c2C)Sc2ccccc2N1
inactive: HCC 2998 > 100 µM | IGROV-1 > 100 µM | K562 > 100 µM | LOX IMVI > 100 µM | Malme-3M > 100 µM | OVCAR-3 > 100 µM | OVCAR-4 > 100 µM | OVCAR-8 > 100 µM | RPMI-8226 > 100 µM | RXF 393 > 100 µM | SF-295 > 100 µM | SK-MEL-28 > 100 µM | SN12C > 100 µM | SNB-19 > 100 µM | U-251 > 100 µM | UACC-62 > 100 µM | UO-31 > 100 µM

Cc1ccccc1C1=[N+]([O-])c2ccc(Cl)cc2C1=O
inactive: HCC 2998 13.6 µM | IGROV-1 15.3 µM | K562 6.12 µM | LOX IMVI 7.78 µM | Malme-3M 16.9 µM | OVCAR-3 2.6 µM | OVCAR-8 7.14 µM | RPMI-8226 3.31 µM | RXF 393 20 µM | SF-295 14.6 µM | SK-MEL-28 21.1 µM | SN12C 15.2 µM | SNB-19 28.1 µM | U-251 17.7 µM | UACC-62 12.4 µM | UO-31 14.3 µM

COc1cccc2c1C(=O)c1c(O)c3c(c(O)c1C2=O)CC(O)(C(C)=O)CC3OC1CC([N+](C)(C)C)C(O)C(C)O1 (centres undefined)
inactive: HCC 2998 > 100 µM | IGROV-1 42.1 µM | K562 23.1 µM | LOX IMVI 51.9 µM | Malme-3M > 100 µM | OVCAR-3 > 100 µM | OVCAR-4 > 100 µM | OVCAR-8 54.3 µM | RPMI-8226 22.5 µM | RXF 393 > 100 µM | SF-295 > 100 µM | SK-MEL-28 > 100 µM | SN12C 50.7 µM | SNB-19 > 100 µM | U-251 55.1 µM | UACC-62 > 100 µM | UO-31 > 100 µM

Cc1c2cc[n+](C)cc2c(C)c2c1[nH]c1ccc(OC(C)(C)C)cc12
inactive: HCC 2998 > 100 µM | IGROV-1 > 100 µM | K562 > 100 µM | LOX IMVI > 100 µM | Malme-3M > 100 µM | OVCAR-4 > 100 µM | OVCAR-8 > 100 µM | RPMI-8226 > 100 µM | RXF 393 > 100 µM | SF-295 > 100 µM | SK-MEL-28 > 100 µM | SN12C > 100 µM | U-251 > 100 µM | UACC-62 > 100 µM | UO-31 > 100 µM
